Source: patent publication US20250186450A1, “COMBINATION THERAPY COMPRISING DGK INHIBITORS and PD-1/PD-L1 INHIBITORS” (Incyte Corporation, priority 2023, published 2025)

How the values were obtained:
[1] = test system: CT26 syngeneic tumor model; assay: CT26 syngeneic tumor model, DGK inhibitor plus anti-PD-1 (RMP1-14); type: in vivo, Balb/C mice; settings: for tumor growth delay vs control vehicle group: Compound 1 alone
Method: The in vivo effect of combining Compound 1 plus anti-PD-1 (RMP1-14, Bio X Cell) was assessed in the CT26 (CRL-2638, ATCC, Manassas, VA) syngeneic tumor model (see FIG. 1) in 6 to 8 weeks old Balb/C mice (Jackson laboratories). Compound 1 was suspended in 5% N,N-dimethylacetamide (DMAC)+50 mM Citrate buffer in 0.5% methyl cellulose for oral administration and RMP1-14 was suspended in saline for intraperitoneal administration. Briefly, the left flank of the mice was shaved the day prior to subcutaneous inoculation with 1×10^6 CT26 cells suspended in PBS. On day 7, tumor dimensions were measured by Vernier calipers, and volume estimated by the formula Volume=[L (long dimension)×W^2 (short dimension)]/2. Mice were randomized into 6 groups of 10 mice of approximate mean volume (˜150 mm^3). Tumors were measured 3 times per week for the duration of the study. Starting day 7, mice were dosed with (i) vehicle; (ii) 250 μg/mouse of RMP1-14; (iii) 10 mg/kg of Compound 1; (iv) 3 mg/kg of Compound 1; (v) 10 mg/kg of Compound 1 and 250 μg/mouse of RMP1-14; or (vi) 3 mg/kg of Compound 1 and 250 μg/mouse of RMP1-14. Compound 1 was administered orally once daily (QD) for 14 days, while RMP1-14 was dosed every 5 days (for a total of 3 doses).
In a separate experiment, mice were randomized on day 7 into 10 groups of 10 mice of approximate mean volume (˜120 mm^3). Tumors were measured 3 times a week for the duration of the efficacy study (day 22). Starting day 7, mice were dosed with (i) vehicle; (ii) 250 μg/mouse of RMP1-14; (iii) 10 mg/kg of Compound 1 QD; (iv) 10 mg/kg of Compound 1 Q2D; (v) 3 mg/kg of Compound 1 QD; (vi) 3 mg/kg of Compound 1 […]; (vii) 10 mg/kg of Compound 1 QD and 250 μg/mouse of RMP1-14; (viii) 10 mg/kg of Compound 1 Q2D and 250 μg/mouse of RMP1-14; (ix) 3 mg/kg of Compound 1 QD and 250 μg/mouse of RMP1-14; or (x) 3 mg/kg of Compound 1 Q2D and 250 μg/mouse of RMP1-14. Compound 1 was administered orally either daily (QD) or every other day (Q2D) for 10 days, while RMP1-14 was dosed every 5 days (for a total of 2 doses).
The in vivo effect of combining Compound 2 plus anti-PD-1 (RMP1-14, Bio X Cell) was assessed in the CT26 (CRL-2638, ATCC, Manassas, VA) syngeneic tumor model (see FIG. 6A-6B) in 6 to 8 weeks old Balb/C mice (Jackson laboratories). Compound 2 was suspended in 5% N,N-dimethylacetamide (DMAC)+50 mM Citrate buffer in 0.5% methyl cellulose for oral administration and RMP1-14 was suspended in saline for intraperitoneal administration. Briefly, the left flank of the mice was shaved the day prior to subcutaneous inoculation with 1×10^6 CT26 cells suspended in PBS. On day 7, tumor dimensions were measured by Vernier calipers, and volume estimated by the formula Volume=[L (long dimension)×W^2 (short dimension)]/2. Mice were randomized into 6 groups of 10 mice of approximate mean volume (˜130 mm^3). Tumors were measured 3 times per week for the duration of the study. Starting day 7, mice were dosed with (i) vehicle; (ii) 250 μg/mouse of RMP1-14 (Anti-PD-1); (iii) 1.5 mg/kg of Compound 2 QD; (iv) 1.5 mg/kg of Compound 2 QD and 250 μg/mouse of RMP1-14; (v) 1.5 mg/kg of Compound 2 Q2D; (vi) 1.5 mg/kg of Compound 2 Q2D and 250 μg/mouse of RMP1-14; (vii) 1.5 mg/kg of Compound 2 Q3D; or (viii) 1.5 mg/kg of Compound 2 Q3D and 250 μg/mouse of RMP1-14.

[2] = test system: human CD3+ T cells co-cultured with allogenic dendritic cells; assay: Allogenic mixed lymphocyte reaction assay, IFNγ by HTRF; type: cell-based
Method: To assess the ability of 4-((2S,5R)-4-((3,3-difluorocyclobutyl)(4-(trifluoromethyl)phenyl)methyl)-2,5-dimethylpiperazin-1-yl)-2-methyl-1-(((S)-tetrahydrofuran-2-yl)methyl)-1H-[1,2,4]triazolo[3,4-b]purine (i.e., Compound 2) to further enhance the T cell effector function induced by checkpoint blockade, the combination effect of Compound 2 and anti-PD-1 reagent (retifanlimab and pembrolizumab) was evaluated in an allogenic mixed lymphocyte reaction assay.
In brief, Human PBMCs were isolated from leukopaks (BioIVT) obtained from healthy donors by the Ficoll-Paque (Cytiva 17144002) cell separation method. Monocyte isolation was performed using the Dynabeads Untouched human monocyte kit (Life Technologies 11350D), and monocytes were cultured in 10% FBS RPMI 1640 treated with 100 ng/mL granulocyte-macrophage colony-stimulating factor (R&D Systems 215-GM/CF) and 50 ng/mL IL-4 (R&D Systems 204-IL/CF) for at least 6 days at 37° C. with 5% CO2 to differentiate into dendritic cells. Pan T cells were isolated using the Dynabeads Untouched human T-cell kit (Life Technologies 11344D) and plated at 1×10^5 cells/well in 100 μL of 10% FBS RPMI 1640 in 96-well, round-bottom plates (Costar 3879). […] After 20 hours of incubation at room temperature, the HTRF signal was measured by the PHERAstar FSX microplate reader (BMG Labtech). […]

Structure (SMILES)	combination effect on tumor growth delay (Bliss Independence analysis) ([1]; 10 mg/kg or 3 mg/kg Compound 1 QD for 14 days with 250 μg RMP1-14 every 5 days, vs respective controls, FIG. 1)	combination effect on tumor growth delay (Bliss Independence analysis) ([1]; 10 mg/kg or 3 mg/kg Compound 1 QD or Q2D for 10 days with 250 μg RMP1-14, vs respective controls, FIG. 2)	tumor growth delay vs control vehicle group ([1]; 10 mg/kg orally QD for 14 days, FIG. 1)	tumor growth delay vs control vehicle group ([1]; 10 and 3 mg/kg QD for 10 days, separate experiment, FIG. 2)	tumor volume vs RMP1-14 alone (Kruskal-Wallis Multiple Comparison Test) ([1]; all groups tested against group (ii) 250 μg/mouse RMP1-14, FIG. 2)	TGI, combined with anti-PD-1 mAb ([1]; 1.5 mg/kg Compound 2 Q2D and 250 μg/mouse RMP1-14, FIGS. 6A-6B)	TGI, combination groups vs respective single-arm control group ([1]; 1.5 mg/kg Compound 2 QD, Q2D or Q3D and 250 μg/mouse RMP1-14)	TGI vs vehicle control group ([1]; Compound 2 alone, 1.5 mg/kg QD, Q2D or Q3D, FIG. 6B)	production of IFNγ, combination vs single agents ([2]; 4 nM Compound 2 plus 0.7 nM pembrolizumab vs anti-PD-1 mAb or Compound 2 single agent, FIG. 5B)	production of IFNγ, combination vs single agents ([2]; 4 nM Compound 2 plus 0.7 nM retifanlimab vs anti-PD-1 mAb or Compound 2 single agent, FIG. 5A)
C[C@@H]1CN(c2nc3nncn3c3c2nnn3C[C@H]2CCCO2)[C@@H](C)CN1C(c1ccc(F)cc1)c1ccc(F)cc1 [Example 1, 4-((2S,5R)-4-(Bis(4-fluorophenyl)methyl)-2,5-dimethylpiperazin-1-yl)-1-(((R)-tetrahydrofuran-2-yl)methyl)-1H-[1,2,3]triazolo[4,5-e][1,2,4]triazolo[4,3-a]pyrimidine]	synergistic effect in tumor growth delay	synergistic effect in tumor growth delay	therapeutic effect in delaying tumor growth	therapeutic effect in delaying tumor growth	statistical significance	–	–	–	–	–
Cc1nc2c(N3C[C@@H](C)N(C(c4ccc(C(F)(F)F)cc4)C4CC(F)(F)C4)C[C@@H]3C)nc3nncn3c2n1C[C@@H]1CCCO1 (single isomer, unassigned) [Example 2]	–	–	–	–	–	significant TGI	statistically significant	None of the single treatment arm groups dosed with 1.5 mg/kg Compound 2 provided statistically significant TGI	statistically significant higher production of IFNγ	statistically significant higher production of IFNγ
